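Briefly, cells in 96-well plates were exposed to five compound concentrations for 48 h, and endpoints were estimated by linear interpolation. The concentration for 50% growth inhibition is given as GI50.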 Active and inactive are the calls of the source. Cut-off read from the data, not from the text of the source: active = GI50 up to about 1.1 µM and inactive = higher.
Assays:
Assay in all cases: NCI-60 cell line screen, 48 h
MCF7 = tested on: MCF7
NCI-H23 = tested on: NCI-H23
LOX IMVI = tested on: LOX IMVI
SF-295 = tested on: SF-295
ACHN = tested on: ACHN
CAKI-1 = tested on: CAKI-1
SK-MEL-5 = tested on: SK-MEL-5
SF-268 = tested on: SF-268
SR = tested on: SR
NCI-H522 = tested on: NCI-H522
HT-29 = tested on: HT-29
MDA-MB-231 = tested on: MDA-MB-231
UO-31 = tested on: UO-31
UACC-62 = tested on: UACC-62
SW-620 = tested on: SW-620
TK-10 = tested on: TK-10
K562 = tested on: K562
SF-539 = tested on: SF-539
OVCAR-8 = tested on: OVCAR-8
SNB-75 = tested on: SNB-75

Measured: GI50

S=c1nc(Nc2ccc(Cl)cc2)c2c3c(sc2[nH]1)CCCC3
inactive: MCF7 90.2 µM | NCI-H23 45.1 µM | LOX IMVI > 100 µM | SF-295 > 100 µM | ACHN 74.5 µM | CAKI-1 > 100 µM | SK-MEL-5 > 100 µM | SF-268 > 100 µM | SR > 100 µM | NCI-H522 37 µM | HT-29 > 100 µM | MDA-MB-231 > 100 µM | UO-31 > 100 µM | UACC-62 > 100 µM | SW-620 > 100 µM | TK-10 > 100 µM | K562 38.5 µM

CCOC(=O)C12C(=O)CCN1CCc1ccccc1C2C (stereo unspecified)
inactive: SF-539 > 100 µM | MCF7 > 100 µM | NCI-H23 > 100 µM | LOX IMVI > 100 µM | SF-295 > 100 µM | OVCAR-8 > 100 µM | ACHN > 100 µM | CAKI-1 > 100 µM | SK-MEL-5 > 100 µM | SF-268 > 100 µM | SR > 100 µM | NCI-H522 > 100 µM | HT-29 > 100 µM | MDA-MB-231 > 100 µM | UO-31 > 100 µM | UACC-62 > 100 µM | SW-620 > 100 µM | TK-10 > 100 µM | K562 > 100 µM

Clc1ccc(CN2CCCN(Cc3ccc(Cl)cc3)C2c2cc3ccccc3c3ccccc23)cc1
inactive: SNB-75 22.4 µM | SF-539 62.2 µM | MCF7 37.2 µM | NCI-H23 46.3 µM | LOX IMVI 36.5 µM | SF-295 52.2 µM | OVCAR-8 > 100 µM | ACHN > 100 µM | CAKI-1 49.8 µM | SK-MEL-5 17.8 µM | SF-268 44.3 µM | SR 3.21 µM | NCI-H522 18.9 µM | HT-29 36.8 µM | MDA-MB-231 25.4 µM | UO-31 88.1 µM | UACC-62 18.7 µM | SW-620 51.8 µM | TK-10 78.5 µM

Cc1c2n(c3ccccc13)S(=O)(=O)c1ccccc1-2
inactive: MCF7 28.9 µM | NCI-H23 23.2 µM | LOX IMVI 44.6 µM | SF-295 17.3 µM | OVCAR-8 21.2 µM | ACHN 18.1 µM | CAKI-1 12.3 µM | SK-MEL-5 72.1 µM | SR > 100 µM | NCI-H522 34.2 µM | HT-29 15.4 µM | MDA-MB-231 17.8 µM | UO-31 18.4 µM | UACC-62 28.1 µM | SW-620 > 100 µM | TK-10 25.6 µM | K562 > 100 µM

C=CCC(SC)C1=C(C)C(=O)c2ccccc21 (stereo unspecified)
inactive: SF-539 > 10 µM | MCF7 > 10 µM | NCI-H23 > 10 µM | LOX IMVI > 10 µM | SF-295 > 10 µM | OVCAR-8 > 10 µM | ACHN > 10 µM | SK-MEL-5 > 10 µM | SF-268 > 10 µM | SR > 10 µM | HT-29 > 10 µM | MDA-MB-231 > 10 µM | UO-31 > 10 µM | UACC-62 > 10 µM | SW-620 > 10 µM | TK-10 > 10 µM | K562 > 10 µM

CC1=NN(C(=O)CSc2nnc(SCC(=O)N3N=C(C)CC3(O)c3ccccc3)s2)C(O)(c2ccccc2)C1 (stereo unspecified)
inactive: MCF7 35.1 µM | NCI-H23 34 µM | LOX IMVI 22.8 µM | SF-295 42 µM | OVCAR-8 26.9 µM | ACHN 34.8 µM | CAKI-1 45.8 µM | SK-MEL-5 28.2 µM | SF-268 12.8 µM | SR 23.3 µM | NCI-H522 29.6 µM | MDA-MB-231 95.5 µM | UO-31 22.3 µM | UACC-62 18.6 µM | SW-620 > 100 µM | TK-10 54.3 µM | K562 32.6 µM

CC(=O)C(=[N+]=[N-])C(=O)OC(C)(C)C#N
inactive: SNB-75 1.48 µM | SF-539 > 10 µM | MCF7 > 10 µM | NCI-H23 > 10 µM | LOX IMVI > 10 µM | SF-295 > 10 µM | OVCAR-8 > 10 µM | ACHN > 10 µM | CAKI-1 > 10 µM | SK-MEL-5 > 10 µM | SF-268 > 10 µM | SR > 10 µM | HT-29 > 10 µM | MDA-MB-231 > 10 µM | UO-31 > 10 µM | UACC-62 > 10 µM | SW-620 > 10 µM | TK-10 > 10 µM | K562 > 10 µM

COc1nc(N)c(NC2OC(CO)C(O)C2O)c(=O)[nH]1 (stereo unspecified)
inactive: SNB-75 > 100 µM | SF-539 > 100 µM | MCF7 > 100 µM | NCI-H23 > 100 µM | LOX IMVI > 100 µM | SF-295 > 100 µM | OVCAR-8 > 100 µM | ACHN > 100 µM | CAKI-1 > 100 µM | SK-MEL-5 > 100 µM | SF-268 > 100 µM | SR > 100 µM | HT-29 > 100 µM | MDA-MB-231 > 100 µM | UO-31 > 100 µM | UACC-62 > 100 µM | SW-620 > 100 µM | TK-10 > 100 µM | K562 > 100 µM

O=c1c2ccccc2nc(N/N=C/c2ccccc2O)n1-c1ccccc1
inactive: SNB-75 11 µM | SF-539 5.31 µM | MCF7 3.33 µM | NCI-H23 6.21 µM | LOX IMVI 4.04 µM | SF-295 6.4 µM | OVCAR-8 1.99 µM | ACHN 3.62 µM | CAKI-1 5.62 µM | SK-MEL-5 4.56 µM | SF-268 2.13 µM | NCI-H522 4.84 µM | HT-29 4.55 µM | MDA-MB-231 4.59 µM | UO-31 2.54 µM | UACC-62 2.77 µM | SW-620 5.75 µM | TK-10 6.43 µM | K562 4.5 µM

O=C(/C=C\c1ccccc1)Oc1ccc(/C=C2\CCC/C(=C\c3ccc(OC(=O)/C=C\c4ccccc4)cc3)C2=O)cc1
inactive: SNB-75 56.5 µM | SF-539 > 100 µM | MCF7 > 100 µM | NCI-H23 > 100 µM | LOX IMVI > 100 µM | SF-295 > 100 µM | OVCAR-8 > 100 µM | ACHN > 100 µM | CAKI-1 > 100 µM | SK-MEL-5 > 100 µM | SF-268 > 100 µM | SR > 100 µM | NCI-H522 > 100 µM | HT-29 > 100 µM | MDA-MB-231 > 100 µM | UO-31 > 100 µM | UACC-62 > 100 µM | SW-620 > 100 µM | TK-10 > 100 µM

Cc1c(C)c2c(c(N)c1C#N)C(=O)N(N)C2=O
inactive: SNB-75 47 µM | SF-539 > 100 µM | MCF7 > 100 µM | NCI-H23 > 100 µM | SF-295 > 100 µM | OVCAR-8 > 100 µM | ACHN > 100 µM | CAKI-1 > 100 µM | SK-MEL-5 > 100 µM | SF-268 > 100 µM | SR 26.3 µM | NCI-H522 > 100 µM | HT-29 > 100 µM | MDA-MB-231 > 100 µM | UO-31 93.3 µM | UACC-62 > 100 µM | SW-620 80.5 µM | TK-10 > 100 µM | K562 > 100 µM

CC(C)c1c(O[Si](C(C)C)(C(C)C)C(C)C)cc2c(c1O)CC[C@H]1C(C)(C)CCC[C@]21C
inactive: SNB-75 50.6 µM | SF-539 > 100 µM | MCF7 > 100 µM | NCI-H23 97.5 µM | LOX IMVI > 100 µM | SF-295 > 100 µM | OVCAR-8 > 100 µM | ACHN > 100 µM | CAKI-1 > 100 µM | SK-MEL-5 > 100 µM | SF-268 > 100 µM | NCI-H522 47.2 µM | HT-29 > 100 µM | MDA-MB-231 > 100 µM | UO-31 > 100 µM | UACC-62 > 100 µM | SW-620 > 100 µM | TK-10 6.12 µM | K562 65.6 µM

O=C(C(=O)c1cc(-c2ccccc2)nc2ccc3ccccc3c12)c1ccccc1
inactive: SNB-75 18.4 µM | SF-539 32.1 µM | MCF7 28.1 µM | NCI-H23 34.1 µM | LOX IMVI 52 µM | SF-295 52.5 µM | OVCAR-8 61.2 µM | ACHN > 100 µM | CAKI-1 58.3 µM | SK-MEL-5 60.1 µM | SF-268 20.8 µM | SR 11.7 µM | HT-29 > 100 µM | MDA-MB-231 > 100 µM | UO-31 > 100 µM | UACC-62 38.8 µM | SW-620 59 µM | TK-10 99.3 µM | K562 18.5 µM

COC[C@@H](/N=C/c1ccc([N+](=O)[O-])cc1)C(C)C
inactive: SNB-75 > 100 µM | MCF7 95.1 µM | NCI-H23 > 100 µM | LOX IMVI 52.7 µM | SF-295 > 100 µM | OVCAR-8 > 100 µM | ACHN > 100 µM | CAKI-1 > 100 µM | SK-MEL-5 > 10 µM | SF-268 > 100 µM | SR 92.7 µM | NCI-H522 > 100 µM | HT-29 > 100 µM | MDA-MB-231 3.24 µM | UO-31 > 100 µM | UACC-62 > 100 µM | SW-620 > 100 µM | TK-10 > 100 µM | K562 34.1 µM

Cc1cc2c(c(/C=N/Cc3ccccc3)c1)OC1(C=C2)Oc2ccccc2C(=O)N1C (stereo unspecified)
inactive: SNB-75 16.4 µM | MCF7 28.9 µM | NCI-H23 24.8 µM | LOX IMVI 17.4 µM | SF-295 29.6 µM | OVCAR-8 16.5 µM | ACHN 20.7 µM | CAKI-1 16.6 µM | SK-MEL-5 19.9 µM | SF-268 21.8 µM | SR 3.54 µM | HT-29 21.6 µM | MDA-MB-231 27.5 µM | UO-31 14 µM | UACC-62 22.4 µM | SW-620 33.6 µM | TK-10 26 µM | K562 14.1 µM
